Assay results published in PubChem BioAssay AID248 (DTP/NCI, 2004).
Values joined by “and” are separate entries in the source; they are usually repeats but may differ in a detail not shown here. Identical values can stand only once. Inconclusive results and toxic doses are left out. Rule as the data show it: active = T/C of 150% or more; inactive = T/C below 125%.

Tested on: L1210 leukemia ip in BDF1 mice, survival T/C
Assay: NCI In Vivo Anticancer Drug Screen. Data for tumor model L1210 Leukemia (intraperitoneal) in B6D2F1 (BDF1) mice
Details: endpoint: mean survival time, higher = longer survival
In short: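 Tumor was transplanted into mice, which were then dosed with test compound or vehicle alone. Survival was recorded for each group, and the treated figure was expressed relative to the control figure.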

[1] = dose: 25.0 mg/kg/injection, schedule: Q01DX009 (ip), vehicle: saline
[2] = dose: 50.0 mg/kg/injection, schedule: Q01DX009 (ip), vehicle: saline
[3] = dose: 50.0 mg/kg/injection, schedule: Q04DX003 (ip), vehicle: saline
[4] = dose: 100.0 mg/kg/injection, schedule: Q01DX001 (ip), vehicle: saline
[5] = dose: 200.0 mg/kg/injection, schedule: Q01DX001 (ip), vehicle: saline
[6] = dose: 400.0 mg/kg/injection, schedule: Q01DX001 (ip), vehicle: saline
[7] = dose: 100.0 mg/kg/injection, schedule: Q04DX003 (ip), vehicle: saline with Tween-80
[8] = dose: 200.0 mg/kg/injection, schedule: Q04DX003 (ip), vehicle: saline with Tween-80
[9] = dose: 400.0 mg/kg/injection, schedule: Q04DX003 (ip), vehicle: saline with Tween-80
[10] = dose: 100.0 mg/kg/injection, schedule: Q04DX003 (ip), vehicle: Klucel (hydroxypropylcellulose) (HPC)

Measured: T/C

O=C(Nc1ccccc1Cl)N(C1CCCCC1)C1CCCCC1
inactive: dose: 100.0 mg/kg/injection, schedule: Q04DX002 (ip), vehicle: Klucel (hydroxypropylcellulose) (HPC) 103 % of control | dose: 200.0 mg/kg/injection, schedule: Q04DX002 (ip), vehicle: Klucel (hydroxypropylcellulose) (HPC) 100 % of control | dose: 400.0 mg/kg/injection, schedule: Q04DX002 (ip), vehicle: Klucel (hydroxypropylcellulose) (HPC) 106 % of control

Cc1ccc(N2CCNCC2)cc1Cl
inactive: dose: 12.5 mg/kg/injection, schedule: Q01DX009 (ip), vehicle: saline 100 % of control | [1] 91 % of control | [2] 102 % of control | [3] 102 % of control

CC(N)(Cc1ccc(O)c(O)c1)C(=O)O (centres undefined)
inactive: [1] 109 % of control | dose: 25.0 mg/kg/injection, schedule: Q04DX003 (ip), vehicle: saline 103 % of control | [2] 101 % of control | [3] 95 % of control | dose: 100.0 mg/kg/injection, schedule: Q01DX009 (ip), vehicle: saline 105 % of control | dose: 100.0 mg/kg/injection, schedule: Q04DX003 (ip), vehicle: saline 103 % of control | dose: 200.0 mg/kg/injection, schedule: Q01DX009 (ip), vehicle: saline 111 % of control | dose: 200.0 mg/kg/injection, schedule: Q04DX003 (ip), vehicle: saline 106 % of control | dose: 400.0 mg/kg/injection, schedule: Q01DX009 (ip), vehicle: saline 117 % of control | dose: 400.0 mg/kg/injection, schedule: Q04DX003 (ip), vehicle: saline 103 % of control

O=c1[nH][nH]c(=S)c(=O)[nH]1
inactive: [4] 102 % of control | [5] 98 % of control | [6] 104 % of control

Cc1cc(C)c(C(=O)O)c(C)c1
inactive: [4] 100 % of control | dose: 100.0 mg/kg/injection, schedule: Q01DX009 (ip), vehicle: saline with Tween-80 93 % of control | [5] 96 % of control | dose: 200.0 mg/kg/injection, schedule: Q01DX009 (ip), vehicle: saline with Tween-80 94 % of control | [6] 96 % of control | dose: 400.0 mg/kg/injection, schedule: Q01DX009 (ip), vehicle: saline with Tween-80 94 % of control

NS(=O)(=O)c1ccc(Cl)c(Cl)c1
inactive: [7] 97 % of control | [8] 103 % of control | [9] 93 % of control

O=C(c1c2c(nc3ccccc13)CCCC2)N1CCOCC1
inactive: [4] 100 % of control | [5] 97 % of control | [6] 97 % of control

CC(=O)OCC1C2CCC(C2)C1C (centres undefined)
inactive: dose: 75.0 mg/kg/injection, schedule: Q01DX001 (ip), vehicle: acetone 95 % of control | dose: 150.0 mg/kg/injection, schedule: Q01DX001 (ip), vehicle: acetone 101 % of control | dose: 300.0 mg/kg/injection, schedule: Q01DX001 (ip), vehicle: acetone 114 % of control

CCOC(=O)c1cnc(SC)nc1N(C)c1ccccc1
inactive: dose: 44.0 mg/kg/injection, schedule: Q04DX003 (ip), vehicle: Klucel (hydroxypropylcellulose) (HPC) 98 % of control | dose: 66.0 mg/kg/injection, schedule: Q04DX003 (ip), vehicle: Klucel (hydroxypropylcellulose) (HPC) 99 % of control | dose: 67.0 mg/kg/injection, schedule: Q04DX003 (ip), vehicle: Klucel (hydroxypropylcellulose) (HPC) 95 % of control | [10] 98 % of control and 101 % of control | dose: 150.0 mg/kg/injection, schedule: Q04DX003 (ip), vehicle: Klucel (hydroxypropylcellulose) (HPC) 95 % of control and 97 % of control

O=C(O)c1cc(-c2cccs2)c(C(=O)O)s1
inactive: dose: 100.0 mg/kg/injection, schedule: Q04DX003 (ip), vehicle: other 103 % of control | dose: 200.0 mg/kg/injection, schedule: Q04DX003 (ip), vehicle: other 93 % of control

CS(=O)(=O)c1cccc(N)c1
inactive: [4] 102 % of control | [5] 91 % of control | [6] 98 % of control

O=C(Cc1ccccc1)NCc1ccccc1
inactive: dose: 25.0 mg/kg/injection, schedule: Q01DX001 (ip), vehicle: saline 97 % of control | dose: 50.0 mg/kg/injection, schedule: Q01DX001 (ip), vehicle: saline 101 % of control | [4] 104 % of control | [5] 104 % of control

Nc1cc(F)c2c(c1)Cc1cc(F)ccc1-2
inactive: dose: 50.0 mg/kg/injection, schedule: Q01DX001 (ip), vehicle: carboxymethylcellulose (CMC) 101 % of control | dose: 100.0 mg/kg/injection, schedule: Q01DX001 (ip), vehicle: carboxymethylcellulose (CMC) 109 % of control | dose: 200.0 mg/kg/injection, schedule: Q01DX001 (ip), vehicle: carboxymethylcellulose (CMC) 95 % of control

CCCCCCC(C)OC(=O)CCl (centres undefined)
inactive: [7] 102 % of control | [8] 104 % of control | [9] 109 % of control

Cc1cc(=O)[nH]c(N)n1
inactive: [10] 114 % of control | [7] 98 % of control | dose: 200.0 mg/kg/injection, schedule: Q04DX003 (ip), vehicle: Klucel (hydroxypropylcellulose) (HPC) 101 % of control | [8] 98 % of control | dose: 400.0 mg/kg/injection, schedule: Q04DX003 (ip), vehicle: Klucel (hydroxypropylcellulose) (HPC) 93 % of control | [9] 96 % of control

Cc1cc(NC(=O)CCc2ccc(N3C(N)=NC(N)=NC3(C)C)cc2)ccc1S(=O)(=O)F
inactive: dose: 4.0 mg/kg/injection, schedule: Q03HX024 (ip), vehicle: other 104 % of control | dose: 7.82 mg/kg/injection, schedule: Q12HX018 (ip), vehicle: acetone 106 % of control | dose: 8.0 mg/kg/injection, schedule: Q03HX008 (ip), vehicle: other 117 % of control | dose: 8.0 mg/kg/injection, schedule: Q03HX024 (ip), vehicle: other 114 % of control | dose: 15.62 mg/kg/injection, schedule: Q12HX018 (ip), vehicle: acetone 105 % of control | dose: 16.0 mg/kg/injection, schedule: Q01DX009 (ip), vehicle: other 112 % of control | dose: 16.0 mg/kg/injection, schedule: Q03HX008 (ip), vehicle: other 104 % of control | dose: 16.0 mg/kg/injection, schedule: Q03HX024 (ip), vehicle: other 114 % of control | dose: 18.0 mg/kg/injection, schedule: Q## X018 (ip), vehicle: saline 118 % of control | dose: 25.0 mg/kg/injection, schedule: Q01DX001 (ip), vehicle: Klucel (hydroxypropylcellulose) (HPC) 103 % of control | dose: 31.25 mg/kg/injection, schedule: Q12HX018 (ip), vehicle: acetone 113 % of control | dose: 32.0 mg/kg/injection, schedule: Q01DX009 (ip), vehicle: other 120 % of control | dose: 32.0 mg/kg/injection, schedule: Q03HX008 (ip), vehicle: other 109 % of control | dose: 32.0 mg/kg/injection, schedule: Q03HX024 (ip), vehicle: other 117 % of control | dose: 32.0 mg/kg/injection, schedule: Q04DX003 (ip), vehicle: other 109 % of control | dose: 50.0 mg/kg/injection, schedule: Q01DX001 (ip), vehicle: Klucel (hydroxypropylcellulose) (HPC) 105 % of control | dose: 64.0 mg/kg/injection, schedule: Q01DX001 (ip), vehicle: other 95 % of control | dose: 64.0 mg/kg/injection, schedule: Q01DX009 (ip), vehicle: other 117 % of control | dose: 64.0 mg/kg/injection, schedule: Q03HX008 (ip), vehicle: other 111 % of control | dose: 64.0 mg/kg/injection, schedule: Q04DX003 (ip), vehicle: other 104 % of control | dose: 100.0 mg/kg/injection, schedule: Q01DX001 (ip), vehicle: Klucel (hydroxypropylcellulose) (HPC) 101 % of control and 92 % of control | dose: 200.0 mg/kg/injection, schedule: Q01DX001 (ip), vehicle: Klucel (hydroxypropylcellulose) (HPC) 92 % of control | dose: 400.0 mg/kg/injection, schedule: Q01DX001 (ip), vehicle: Klucel (hydroxypropylcellulose) (HPC) 92 % of control
